These are literature values, as cited in patent publication US20170095440A1, “METHOD OF TREATING CANINE PANCREATITIS” (CK9, LLC, priority 2014, published 2017).

This series has as its system serine protease. The note with it: hydrolysis products of Camostat Mesilate; cited from earlier work.

Take `N=C(N)Nc1ccc(C(=O)Oc2ccc(CC(=O)O)cc2)cc1` [GBPA, 4-(4-guanidino-benzoyloxy) phenylacetic acid]: the Anti-proteolytic activity result is listed as “active anti-proteolytic metabolite”.
In the case of `N=C(N)Nc1ccc(C(=O)O)cc1` [GBA, 4-guanidinobenzoic acid], the Anti-proteolytic activity entry is listed as “non-active”.
